According to patent US10676474B2, “1,6-naphthyridine derivatives as CDK4/6 inhibitor” (CSTONE PHARMACEUTICALS, priority 2016, dated 2020):
In brackets after ≈: the same amount, converted by molar mass.

Columns and labels:
[1] = tested on: colorectal cancer HCT-116 model; experiment: In vivo pharmacodynamic study (3), HCT-116 model, tumor volume; parameters: species or system BALB/c nude mice; settings: 60 mg/kg(D0-D11), 120 mg/kg (D12-D20), PO, QD × 21
Procedure: (§1) The in vivo pharmacodynamic experiments were performed on the BALB/c nude mice implanted subcutaneously with the colorectal cancer HCT-116 model.
(§2) BALB/c nude mice, female, 6-8 weeks, weighing approximately 18-22 g, were placed in a single ventilated cage (3-5 mice per cage) under a special pathogen free environment. All of the cages, beddings and water were disinfected before use. All of the animals were permitted free access to a standard certified commercial laboratory diet. A total of 48 mice purchased from Shanghai Lingchang Biotechnology Co., Ltd. were used for the study. Each mouse was implanted subcutaneously with 0.2 mL of 5×10^6 HCT-116 cells in the right back for tumor growth. The dosing in groups initiated when the average tumor volume reached about 132 mm^3. The tumor volume was measured twice a week using a two-dimensional caliper, and the volume was measured in mm^3, calculated by the following the formula: V=0.5 a×b^2, wherein, a and b were the long and short diameters of the tumor, respectively. The antitumor efficacy was determined by dividing the average increase in the tumor volume of the animals treated with the compound by the average increase in the tumor volume of the untreated animals.

physchem = settings: phosphate buffer, pH 7.4, aqueous buffer, kinetic from dmso stock
CDK4/cyclin D1 = target: T1, CDK4/cyclin D1 (Homo sapiens, UniProt P11802); experiment: Enzyme activity assay CDK4/cyclin D1 (Lance Ultra); assay type: biochemical; settings: 0.3 nM CDK4/cyclin D1, 350 μM ATP, 180 minutes
T1 construct: purchased Life technology
T1 sequence (P11802 whole entry): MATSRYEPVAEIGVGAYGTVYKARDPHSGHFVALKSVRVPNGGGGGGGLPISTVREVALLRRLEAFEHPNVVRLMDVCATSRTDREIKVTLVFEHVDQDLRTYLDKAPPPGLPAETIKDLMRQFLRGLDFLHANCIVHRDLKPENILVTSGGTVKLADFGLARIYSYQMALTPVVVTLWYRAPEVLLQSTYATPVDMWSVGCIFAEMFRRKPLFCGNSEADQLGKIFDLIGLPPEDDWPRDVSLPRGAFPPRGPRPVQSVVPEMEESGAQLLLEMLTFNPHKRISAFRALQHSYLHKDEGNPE
T1 sequence (P24385 whole entry partner): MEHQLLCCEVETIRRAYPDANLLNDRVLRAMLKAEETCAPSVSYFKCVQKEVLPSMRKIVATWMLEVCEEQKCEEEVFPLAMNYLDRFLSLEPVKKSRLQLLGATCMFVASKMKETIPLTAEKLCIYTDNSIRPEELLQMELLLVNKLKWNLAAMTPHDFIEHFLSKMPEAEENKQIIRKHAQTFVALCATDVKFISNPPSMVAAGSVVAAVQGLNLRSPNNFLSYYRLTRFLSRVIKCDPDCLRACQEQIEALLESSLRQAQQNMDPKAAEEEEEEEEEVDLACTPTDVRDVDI
Procedure: CDK4/cyclin D1, CDK6/cyclin D1 (Life technology). ULight labeled polypeptide substrates ULight-4E-BP1 and ULight-MBP (PerkinElmer). Europium labeled anti-myelin basic protein antibody and europium labeled rabbit-derived antibody (PerkinElmer). Envision Multi-label Analyzer (PerkinElmer) for signal detection.
They were respectively dissolved in an enzyme buffer solution comprising: 50 mM hydroxyethylpiperazine ethanesulfuric acid solution at pH 7.5, 1 mM ethylenediaminetetraacetic acid, 10 mM magnesium chloride, 0.01% Brij-35, 2 mM dithiothreitol. After the reaction was begun, the OptiPlate 384-well plate was sealed with a top heat seal film TopSeal-A, and incubated at room temperature for 180 minutes.
The termination buffer solution of the enzymatic reaction was prepared, and EDTA was dissolved in a 1-fold diluted assay buffer solution. The reaction was terminated and incubated at room temperature for 5 minutes. 5 μL of the assay mixed solution (prepared with europium labeled anti-myelin basic protein antibody and europium labeled rabbit-derived antibody, respectively) was added to the reactions of CDK4/cyclin D1 and CDK6/cyclin D1, respectively, and incubated at room temperature for 60 minutes. The reaction signal was detected by Envision according to the time-resolved fluorescence resonance energy transfer theory.

[2] = tested on: non-small cell lung cancer NCI-H358 model; experiment: In vivo pharmacodynamic study (2), NCI-H358 model, tumor volume; parameters: species or system BALB/c nude mice; settings: for Gross tumor volume (Day 1): Day 1, Table 6-2; for Gross tumor volume (Day 28): Day 28, Table 6-2
Procedure: The in vivo pharmacodynamic experiments were performed on the BALB/c nude mice implanted subcutaneously with the non-small cell lung cancer NCI-H358 model.
All of the cages, beddings and water were disinfected before use. All of the animals were permitted free access to a standard certified commercial laboratory diet. A total of 86 mice purchased from Vital River Laboratory Animal Co., LTD, Beijing were used for the study. The animal information of the experiments in Example 34 was as follows: BALB/c nude mice, female, 6-8 weeks, weighing approximately 16-18 g, were placed in a single ventilated cage (4 mice per cage) under a special pathogen free environment. All of the cages, beddings and water were disinfected before use. All of the animals were permitted free access to a standard certified commercial laboratory diet. A total of 56 mice purchased from Shanghai Lingchang Biotechnology Co., Ltd. were used for the study.
Each mouse was implanted subcutaneously with NCI-H358 tumor cells in the right back for tumor growth. The dosing initiated when the average tumor volume reached about 100-200 mm^3. […] The tumor volume was measured twice a week using a two-dimensional caliper, and the volume was measured in mm^3, calculated by the following the formula: V=0.5 a×b^2, wherein, a and b were the long and short diameters of the tumor, respectively. The antitumor efficacy was determined by dividing the average increase in the tumor volume of the animals treated with the compound by the average increase in the tumor volume of the untreated animals, and the safety of the compound was determined by the change in the body weight of the animal treated with the compound.
TGI: Tumor Growth Inhibition.

[3] = Metabolic stability in mouse liver microsomes; assay type: in vitro ADME; settings: 0.5 mg/mL protein, read-out: Mice T1/2
Procedure: This assay is used to test the metabolic stability of tested substances in rats, mice and human liver microsomes.
1) The tested compound with concentration of 1 μM was co-incubated with liver microsomes with a protein concentration of 0.5 mg/mL under a reducing coenzyme II regeneration system in a 37° C. water bath.
2) The positive controls include: testosterone (3A4 substrate), propafenene (2D6 substrate) and diclofenac (2C9 substrate). The incubation condition of the positive controls was consistent with that of the compound.
3) The reaction time points were: 0, 5, 10, 20, 30 and 60 minutes, and the reaction is terminated at the corresponding time point using a termination solution containing an internal standard. The compounds were also incubated with microsomes for 60 minutes without a reducing coenzyme II regeneration system and served as a negative control.
4) Each time point was a single point (n=1).
5) The sample was determined by LC/MS/MS, and the compound concentration was shown as the ratio of the peak area of the compound to the peak area of the internal standard (non-standard).
6) In the project report summary, the half-life and the clearance rate would be calculated.

[4] = In vivo pharmacodynamic study (3), HCT-116 model, animal weight; parameters: species or system BALB/c nude mice; settings: 60 mg/kg(D0-D11), 120 mg/kg (D12-D20), PO
Procedure: as §1, §2

Compound: CC(=O)c1c(C)c2cnc(Nc3cnc(N4CCN(CCN(C)C)CC4)cn3)cc2n(C2CCCC2)c1=O [Example 34]
- Gross tumor volume, 0 day ([1]; 0 day): 132 mm^3
- Gross tumor volume, 7 days ([1]; 7 days): 416 mm^3
- Gross tumor volume, 14 days ([1]; 14 days): 695 mm^3
- Gross tumor volume, 21 days ([1]; 21 days): 963 mm^3
- solubility kinetic at 24 h (physchem): 194 µM (≈ 101 µg/mL)
- IC50 (CDK4/cyclin D1): 7.45 nM
- Gross tumor volume (Day 1) ([2]; 20 mg/kg orally daily): 149 ± 18 mm^3
- TGI (Day 28) ([2]; 20 mg/kg orally daily): 15.3%
- Gross tumor volume (Day 28) ([2]; 20 mg/kg orally daily): 940 ± 70 mm^3
- Gross tumor volume (Day 1) ([2]; 60 mg/kg orally daily): 169 ± 27 mm^3
- TGI (Day 28) ([2]; 60 mg/kg orally daily): 32.1%
- Gross tumor volume (Day 28) ([2]; 60 mg/kg orally daily): 804 ± 103 mm^3
- Gross tumor volume (Day 1) ([2]; 150 mg/kg orally daily): 149 ± 18 mm^3
- TGI (Day 28) ([2]; 150 mg/kg orally daily): 92.9%
- Gross tumor volume (Day 28) ([2]; 150 mg/kg orally daily): 215 ± 34 mm^3
- half-life at 1 μM [3]: 40.2 min
- Changes in animal weight, 0 day ([4]; QD × 21, 0 day): 0%
- Changes in animal weight, 7 days ([4]; QD × 21, 7 days): 2.5%
- Changes in animal weight, 14 days ([4]; QD × 21, 14 days): −2.3%
- Changes in animal weight, 21 days ([4]; QD × 21, 21 days): −5.9%
